Experimental data published in patent US20070202503A1, “Pharmaceutical Composition Of (+)-Erythro-Mefloquine And Its Use” (priority 2004, published 2007).

Columns and labels:
human neutrophil = details: cited from earlier work
[1] = Adverse events in clinical study on a background of methotrexate therapy; type: in vivo, patients; details: combination of (+)-erythro-mefloquine and methotrexate
From the text: The formulations were used on a background of methotrexate therapy.
This is shown in FIG. 2, a plot of TMD (mean score) against time (days); ♦ represents placebo, ▴ represents A, ▪ represents B and ★ represents C.

| Structure (SMILES) | effect on human neutrophil degranulation (human neutrophil) | Adverse events compared with methotrexate alone [1] |
| --- | --- | --- |
| OC(c1cc(C(F)(F)F)nc2c(C(F)(F)F)cccc12)C1CCCCN1 (racemic) [Racemic mefloquine, mefloquine] | stimulates human neutrophil degranulation | – |
| O[C@H](c1cc(C(F)(F)F)nc2c(C(F)(F)F)cccc12)[C@@H]1CCCCN1 [(+)-erythro-mefloquine] | – | lower adverse events than methotrexate alone |
